A short description of data set [1]: Wide-angle x-ray diffraction (WAXRD) of powders. The class given is physicochemical. Conditions: powder, 2θ 5 to 35°. As to the method:
The ABZ and ABZ-BA powders were characterized by an X’Pert3 Powder X-ray diffractometer (PANalytical, Inc. U.K.), a voltage of 40 kV, and a current of 40 mA. The samples were scanned from 2θ = 5 to 35° at a scanning speed of 1°/min, and the step size was at 0.01° 2θ [10].

A short description of data set [2]: Water solubility, stated in response to reviewers. The class given is physicochemical. From the text: ABZ and ABZ-BA are both water-insoluble, so we suspended the drug in a 0.5% sodium carboxymethyl cellulose (CMC-Na) aqueous solution. This method of administration has been widely used for the oral administration of poorly soluble drugs. This method has been adopted by our research group in previous studies, and many studies have been published that use this method, including the following: […]

For data set [3], the system named is protoscolex (PSCs). The experiment in a line: Detection of protoscolex mortality / survival rate in vitro (trypan blue). The class given is cell-based, E. multilocularis. Conditions: for inhibitory effect on PSC survival rate: 7 days, ABZ 10 μg/mL, ABZ-SO 10 μg/mL, ABZ-BA 13.45, 26.9, 53.8 μg/mL, liver homogenate + 0.2% DMSO, n = 3. The text has this:
(§1) Protoscoleces (PSCs) from E. multilocularis were collected aseptically from alveolar echinococcosis obtained from the abdominal cavity of gerbils in Qinghai Research Key Laboratory for Echinococcosis, China. The specific operation steps were as follows: (1) dissect the successfully preserved Echinococcus protoscoleces gerbil model, isolate cysts and wash the residual liver tissue and blood with sterile Penicillin-Streptomycin solution (penicillin (1500 U/ mL) + streptomycin (1000 U/ mL)). (2) Place the clean cysts in sterile glassware, cut them into a slurry, filter the original head section with sterile gauze, and rinse them with Penicillin-Streptomycin solution 3 times. (3) Slightly rotate and shake the filtrate, absorb the suspended connective tissue, impurities, inactivated PSCs, and excess Penicillin-Streptomycin solution in the upper layer, repeat several times and finally concentrate the pure PSCs into the test tube. Viability was assessed by muscular movement (evaluated under an optical microscope), the motility of flame cells, and the exclusion test with methylene blue. The PSCs were incubated in an RPMI 1640 medium containing 0.20 mg/mL liver homogenous serous, 100 U/mL penicillin, 100 μg/mL streptomycin and 10% calf serum at 37°C in a 5% CO2 atmosphere at a concentration of (1000–2000) PSCs/mL.
(§2) The PSCs were divided into blank control groups (Groups 1 and 2), positive control groups (Groups 3 and 4), and experimental groups (Groups 5 to 7). Group 1 was RPMI-1640 medium with 0.20 mg/mL liver homogenate; Group 2 was 0.2% DMSO medium with 0.2% DMSO; Group 3 was RPMI-1640 medium with 0.20 mg/mL liver homogenate and 0.2% DMSO, containing 10 μg/mL Albendazole; Group 4 was RPMI-1640 medium with 0.20 mg/mL liver homogenate and 0.2% DMSO, containing 10 μg/mL albendazole sulfoxide; Groups 5–7 were RPMI-1640 medium with 0.20 mg/mL liver homogenate and 0.2% DMSO, containing 13.45, 26.9 and 53.8 μg/mL ABZ-BA, with effective ABZ concentrations of 5, 10 and 20 μg/mL, respectively. The culture medium and drug were changed every 3 days for one week. PSCs samples (10 μL) were collected every day and stained with 0.4% trypan blue staining solution, observed under an inverted microscope, and photographed to record PSC mortality.

Data set [4] relates to protoscolex (PSCs). Description: Protoscolex microstructure by optical microscope and SEM. The conditions noted are these: 5 days after treatment. The class given is cell-based, E. multilocularis.
Source text: as §1, §2
For ultrastructural studies, 200 μL PSCs were taken from each group 5 days after treatment and fixed with 4% glutaraldehyde in sodium cacodylate buffer at 4°C for 72 hours. Samples were dehydrated by continuous incubation in increasing concentrations of ethanol (50–100%), and ethanol was removed by supercritical extraction. They were then sputter-coated with gold (100 Å thick) and examined on an FEI Quanta 200 scanning electron microscope operating at 20 kV.

Data set [5] in a line: Systemic pharmacokinetics in SD rats (UHPLC-MS). The class given is in vivo, Sprague-Dawley (SD) rats. The conditions noted are these: for Cmax: po, 25 mg/kg. As to the method:
A Dionex Ultimate 3000 RSLC system (Thermofisher) combined with an Accucore aQ C18 column (150 mm×2.1 mm, 2.6 μm, Thermo fisher) was used in the sample separation process. The separation speed was set at […] for all gradients. 1 μL of injection volume and a constant temperature of (25 ± 1°C were set for the column. The eluents were A, water with 0.1% formic acid (v/v) and B, methanol; the gradient program was as follows: 0–6 min, 8–40% B; 6–8 min, 40–100% B; 8–10 min, 100% B; 10–11 min, 100–8% B; 11–13 min, 8% B.
Heated electro-spray ionization (HE-SI) was paired with a Q-Orbitrap MS in the MS analysis. The flow rate of auxiliary, sheath and sweep gas was set at 35, 10, and 1 (arbitrary unit), respectively. A full MS-ddMS^2 mode was used to perform the analysis. The damping gas in the C-trap and nitrogen was used to stabilize the spraying. Temperatures of 350°C and 320°C were set and kept for the auxiliary gas heater and capillary. Under negative mode, 3.0 kV was adopted for the spray voltage, 60 V was used for the S-lens RF level, 50 ms was used for the maximum injection time, and 3.0 ^e6 was set as the automatic gain control target. Full MS-ddMS^2 scan ranged from 150.0000 to 800.0000 m/z. Precise molecular weight […] was used for qualitative analysis, the corresponding peak area was used for quantitative analysis, and MS^2 fragments were used for further qualitative analysis.
A cross-over design was employed with male SD rats (n = 7) to evaluate in vivo pharmacokinetics. The rats were subjected to fasting for one night before each administration and were fed 4 hours after administration. ABZ was administered by gavage (25 mg/kg). Blood was collected under isoflurane anesthesia at a flow rate of 2.0 mL/min. At 0.25, 0.5, 1, 2, 2.5, 3, 4, 6, 8, 12, and 24 hours after administration, 200–500 μL blood was collected from the orbital venous plexus and centrifuged at 13000 rpm for 5 min. The upper plasma was stored at—80°C for testing.
Plasma samples were thawed at room temperature, and 100 μL was added to an equal volume of mass spectrometry grade methanol, vortexed for 1 min, and centrifuged again at 13000 rpm for 5 min. 100 μL of the supernatant were added to 100 μL of 200 ng/mL mebendazole IS solution, vortexed for 1 min, and centrifuged again at 13000 rpm for 5 min. The resulting sample was injected by UHPLC-HR-ESI-MS with an injection volume of 1 μL. The pharmacokinetic study of SD rats was performed according to the standards recommended by the "Guidelines for the Care and Use of Laboratory Animals" (Animal Laboratory Resources Institute, 1995) and was approved by the Institutional Animal Care and Use Committee of Qinghai University.

The conditions of data set [6]: background statement; cited from earlier work.

Entries after “also recorded” stand apart in the source; their conditions may differ. Where two headings read alike, the source gives them in different places. Where only a bound is given, the exact number is not on record here.

As for `CCCSc1ccc2nc(NC(=O)OC)[nH]c2c1` [ABZ, Albendazole], in data set [1], the “physical state (WAXRD)” value is listed as “crystalline”. In addition, the water solubility entry in data set [2] (reason for dosing as suspension in 0.5% CMC-Na) is on record as “water-insoluble”. For the same molecule, in the data set on protoscolex (PSCs) [3], the “inhibitory effect on PSC survival rate” value was “time and concentration-dependent inhibitory effects”. In addition, the “PSC morphology under the SEM” value with protoscolex (PSCs) [4] (10 μg/mL) was “elongated and curled up”. Also, the “PSC morphology under the optical microscope (OM)” value in the data set with protoscolex (PSCs) [4] (10 μg/mL) is “became vacuolar and transparent”. Moreover, the “mortality of PSCs” value with protoscolex (PSCs) [4] (10 μg/mL, vs blank groups) was “significantly higher than in the blank groups”. Besides, the Cmax in data set [5] (male, Sprague-Dawley, rat, in vivo, SD rats, oral 25mg/kg of API) came to 76.4 ± 7.62 ng/mL; in data set [5] (male, Sprague-Dawley, rat, in vivo, SD rats, oral 25 mg/kg, n = 7, Table 2), 8.44 ± 3.6 ng/mL. For the same molecule, the Tmax in data set [5] (male, Sprague-Dawley, rat, in vivo, SD rats, oral 25 mg/kg, n = 7) came out at 10.9 ± 1.95 h. In addition, in data set [5] (male, Sprague-Dawley, rat, in vivo, SD rats, oral 25 mg/kg, n = 7, Abz = ABZ content of ABZ-BA), the AUC(0-inf) was 101 ± 45.9 ng·h/mL. Moreover, the AUC(0-t) in data set [5] (male, Sprague-Dawley, rat, in vivo, SD rats, oral 25 mg/kg, n = 7, Abz = ABZ content of ABZ-BA, read-out: AUC(0–24)) was found to be 91.5 ± 42.7 ng·h/mL. For the same molecule, the MRT inf in data set [5] (male, Sprague-Dawley, rat, in vivo, SD rats, oral 25 mg/kg, n = 7, read-out: MRT(0-∞)) amounted to 13.9 ± 3.98 h. Further, the MRT last in data set [5] (male, Sprague-Dawley, rat, in vivo, SD rats, oral 25 mg/kg, n = 7, read-out: MRT(0–24)) was 11.6 ± 0.91 h. In addition, the Vd/F in data set [5] (male, Sprague-Dawley, rat, in vivo, SD rats, oral 25 mg/kg, n = 7, read-out: Vz/F) is 1990 ± 1620 L/kg. In addition, the half-life in data set [5] (male, Sprague-Dawley, rat, in vivo, SD rats, oral 25 mg/kg, n = 7, read-out: t1/2z (converted)) is 5.51 ± 4.27 h. Further, the concentration at 8 h in data set [5] (male, Sprague-Dawley, rat, in vivo, SD rats, oral 25mg/kg, lower limit of detection, read-out: blood concentration after oral administration for 8 hours) is under 1 ng/mL. For the same molecule, in data set [6], the oral bioavailability is under 5%.

As for `CCCSc1ccc2[nH]c(NC(=O)NCCCCOC(=O)CCC(C)C3CCC4C5C(O)CC6CC(O)CCC6(C)C5CC(O)C34C)nc2c1` (stereo not shown) [ABZ-BA], the “physical state (WAXRD)” value in data set [1] is recorded as “amorphous”. Besides, the water solubility entry in data set [2] is “water-insoluble”. Moreover, in the data set on protoscolex (PSCs) [3], the “inhibitory effect on PSC survival rate” value was “time and concentration-dependent inhibitory effects”. Also, the “inhibitory effect / killing ability on PSCs compared with ABZ” value in the data set with protoscolex (PSCs) [3] (in vitro) is on record as “identical to that of ABZ; also recorded: the same as that of ABZ”. For the same molecule, the “PSC morphology, lowest concentration” value in the data set on protoscolex (PSCs) [4] (ABZ-BA 13.45 μg/mL) is reported as “obvious shrinkage at the lowest concentration, but the suckers were still clearly visible”. Moreover, the “PSC morphology, intermediate and high concentration” value in the data set with protoscolex (PSCs) [4] (ABZ-BA 26.9 and 53.8 μg/mL) is recorded as “strikingly distinct from their original form, appearing in a disc state after death”. Also, in data set [5] (SD rats, oral 25 mg/kg), the “detectability in blood after oral administration for 8 hours” value is listed as “easily detected”. Moreover, the “pharmacokinetic behavior compared with Albenda” value in data set [5] (rat, in vivo) is recorded as “superior to that of Albenda”.

One may read the Cmax as the maximum level reached in the sampled fluid or tissue. For orientation: Tmax means the time at which the peak concentration occurs. As a reminder, the AUC(0-inf) is the area under the concentration-time curve extrapolated to infinity. Low readings indicate low exposure, high ones high exposure.

The values are drawn from publication PMC9838834, “Improvement of Antialveolar echinococcosis efficacy of novel Albendazole-Bile acids Derivatives with Enhanced Oral Bioavailability” (PLOS Neglected Tropical Diseases, 2023).
